The supplement of paper PMC10307832

Experiments:
Experiment in all cases: relative viability (nuclei count vs DMSO), 5 days (fraction); higher = more cells survive
[1] = compound: COC1=CC=C(C=C1)COC2=C(C=C(C=C2)CC3=CN=C(N=C3N)N)OC [GW-2580] + Cc1nc(NC(=O)N2CCC[C@H]2C(N)=O)sc1-c1ccnc(C(C)(C)C(F)(F)F)c1 [Alpelisib] (partner 2 µM)
Procedure, shortened: (§1)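 Relative viability was taken as the ratio of nuclei in treated wells to nuclei in vehicle wells. Lung cancer cell lines in 1536-well plates received compounds by pin tool one day after seeding, either one drug alone or a fixed anchor-drug dose plus five library-drug doses (not always all listed) in √10 steps. Nuclei were counted on 4× images after 5 days of treatment, and values are medians of duplicate plates.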

[2] = compound: COC1=CC=C(C=C1)COC2=C(C=C(C=C2)CC3=CN=C(N=C3N)N)OC [GW-2580] + O=C(c1cc(Cc2n[nH]c(=O)c3ccccc23)ccc1F)N1CCN(C(=O)C2CC2)CC1 [Olaparib] (partner 8 µM)
Procedure, shortened: as §1

[3] = compound: Cc1cnc(Nc2ccc(OCCN3CCCC3)cc2)nc1Nc1cccc(S(=O)(=O)NC(C)(C)C)c1 [Fedratinib] + CC(C)C[C@H](NC(=O)[C@H](Cc1ccccc1)NC(=O)c1cnccn1)B(O)O [Bortezomib] (partner 0.002 µM)
Procedure, shortened: as §1

[4] = compound: Cc1cnc(Nc2ccc(OCCN3CCCC3)cc2)nc1Nc1cccc(S(=O)(=O)NC(C)(C)C)c1 [Fedratinib] + Cc1cc(Nc2cc(N3CCN(C)CC3)nc(Sc3ccc(NC(=O)C4CC4)cc3)n2)n[nH]1 [Tozasertib] (partner 0.1 µM)
Procedure, shortened: as §1

[5] = compound: Cc1cnc(Nc2ccc(OCCN3CCCC3)cc2)nc1Nc1cccc(S(=O)(=O)NC(C)(C)C)c1 [Fedratinib] + C[C@]1(O)C[C@@H](c2nc(-c3ccc4ccc(-c5ccccc5)nc4c3)c3c(N)nccn32)C1 [Linsitinib] (partner 1 µM)
Procedure, shortened: as §1

Row | Cell Line | relative viability ([1]; first compound 0.08 µM) | relative viability ([1]; first compound 0.8 µM) | relative viability ([1]; first compound 2.53 µM) | relative viability ([1]; first compound 8 µM) | relative viability ([2]; first compound 0.08 µM) | relative viability ([2]; first compound 0.8 µM) | relative viability ([2]; first compound 2.53 µM) | relative viability ([2]; first compound 8 µM) | relative viability ([3]; first compound 0.1 µM) | relative viability ([3]; first compound 0.3162 µM) | relative viability ([3]; first compound 1 µM) | relative viability ([4]; first compound 0.1 µM) | relative viability ([4]; first compound 0.3162 µM) | relative viability ([4]; first compound 1 µM) | relative viability ([5]; first compound 0.1 µM) | relative viability ([5]; first compound 0.3162 µM) | relative viability ([5]; first compound 1 µM)
1 | HCC-44 | 0.863 | 0.759 | 0.691 | 0.775 | 1.04 | 1.05 | 1.04 | 1.03 | 0.905 | 0.827 | 0.734 | 0.258 | 0.843 | 0.805 | 0.621 | 0.652 | 0.667
2 | HCC-827 | 1.15 | 0.923 | 0.902 | 0.915 | 0.692 | 0.642 | 0.632 | 0.617 | 1.09 | 1.03 | 1.03 | 0.345 | 0.387 | 0.409 | 0.964 | 1.01 | 0.948
3 | NCI-H1623 | – | – | – | – | – | – | – | – | – | – | – | 0.414 | 0.486 | 0.397 | – | – | –
4 | NCI-H2347 | 1.02 | 0.968 | 0.915 | 1.05 | 0.538 | 0.616 | 0.54 | 0.595 | 0.82 | 0.874 | 0.722 | 0.368 | 0.602 | 0.483 | 0.871 | 0.922 | 0.878
5 | PC-14 | 0.995 | 1.14 | 0.864 | 0.906 | 0.243 | 0.247 | 0.242 | 0.295 | 0.885 | 0.81 | 0.951 | 0.436 | 0.59 | 0.583 | 0.927 | 1.03 | 0.92
6 | NCI-H1651 | 1.26 | 1.17 | 0.954 | 0.934 | 0.175 | 0.183 | 0.196 | 0.197 | 0.965 | 0.951 | 0.871 | 0.537 | 0.616 | 0.623 | 0.976 | 0.954 | 1.01
7 | HARA | 0.958 | 0.927 | 0.578 | 0.8 | 0.624 | 1.19 | 0.895 | 0.726 | 1.41 | 1.18 | 0.404 | 0.107 | 0.105 | 0.0905 | 1.09 | 0.975 | 0.979
8 | NCI-H1650 | – | – | – | – | 0.704 | 0.951 | 0.719 | 0.774 | 0.199 | 0.221 | 0.193 | – | 0.408 | 0.335 | – | – | –
9 | NCI-H1395 | 1.04 | 0.941 | 1.03 | 1.01 | 0.426 | 0.427 | 0.489 | 0.425 | – | – | – | 0.623 | 0.874 | 0.653 | 1.2 | 1.29 | 1.28
10 | LU99A | 0.496 | 0.522 | 0.354 | 0.528 | 0.259 | 0.264 | 0.261 | 0.269 | 1.12 | 1.14 | 0.466 | 0.209 | 0.291 | 0.276 | 0.521 | 0.513 | 0.48
11 | NCI-H1355 | 0.816 | 0.937 | 0.694 | 0.883 | 0.804 | 0.836 | 0.669 | 0.691 | 1.21 | 1.24 | 1.09 | 0.325 | 0.593 | 0.421 | 0.684 | 0.822 | 0.796
12 | HCC-78 | 0.368 | 0.363 | 0.28 | 0.304 | 0.818 | 0.919 | 0.757 | 0.861 | 0.439 | 0.535 | 0.511 | 0.402 | 0.36 | 0.392 | 0.427 | – | 0.49
13 | NCI-H1563 | 0.989 | 1.05 | 0.853 | 0.869 | – | – | – | – | 0.699 | 0.939 | 0.631 | – | – | – | 1.16 | 1.18 | 1.16
14 | HCC-15 | 0.915 | 0.894 | 0.87 | 0.82 | 0.841 | 0.628 | 0.66 | 0.75 | 1.04 | 0.963 | 0.469 | 0.165 | 0.339 | 0.341 | 0.755 | 0.719 | 0.734
15 | EKVX | 0.898 | 1.02 | 0.91 | 0.874 | 0.905 | 0.986 | 0.812 | 0.89 | 1.11 | 1.11 | 1.06 | 0.359 | 0.343 | 0.407 | 1.09 | 0.967 | 0.982
16 | NCI-H2087 | 1.23 | 0.999 | 1.02 | 0.613 | 0.668 | 0.934 | 0.608 | 0.542 | 0.806 | 0.754 | 0.259 | 0.205 | 0.206 | 0.179 | 1.02 | 0.923 | 0.859
17 | LK-2 | 1.21 | 1.21 | 0.849 | 1.38 | 0.625 | 0.732 | 0.612 | 0.775 | – | – | – | 0.186 | 0.193 | 0.161 | 0.349 | 0.733 | 0.495
18 | NCI-H1437 | 1.12 | 1.11 | 0.892 | 0.81 | 0.672 | 0.662 | 0.631 | 0.602 | 0.432 | 0.473 | 0.191 | 0.398 | 0.417 | 0.368 | 1.03 | 0.978 | 0.884
19 | COR-L23 | 0.856 | 0.83 | 0.611 | 0.815 | 0.422 | 0.375 | 0.294 | 0.406 | 1.14 | 0.975 | 0.938 | 0.103 | 0.186 | 0.168 | 1.04 | 0.906 | 0.759
20 | ABC-1 | 1.36 | 0.944 | 0.93 | 0.891 | 0.774 | 0.634 | 1.43 | 0.824 | 0.339 | 0.363 | 0.186 | 0.179 | 0.146 | 0.138 | 0.625 | 0.859 | 0.713
